Some test systems named below: SK-MEL-28 melanoma; 786-0 renal; SR leukemia; ACHN renal; SNB-75 CNS; SW-620 colon; SF-268 CNS; MDA-MB-435; T-47D breast; RPMI-8226 leukemia; SK-MEL-2 melanoma; MALME-3M melanoma; NCI-H460 lung; SK-MEL-5 melanoma; RXF 393 renal; M14 melanoma; HOP-92 NSCLC; HL-60(TB) leukemia; NCI-H23 lung; HOP-62 NSCLC; UACC-62 melanoma; K-562 leukemia; CCRF-CEM leukemia; CAKI-1 renal; COLO 205 colon; OVCAR-4 ovarian; A549 NSCLC; IGROV1 ovarian; U251 CNS; MCF7 breast; MOLT-4 leukemia; SK-OV-3 ovarian; NCI/ADR-RES ovarian; A498 renal; TK-10 renal; HS 578T breast.

Holding throughout (test): growth of human tumour cells (NCI), 48 h

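Test compounds were applied to cells in 96-well plates for 48 hours at 5 doses. Here, GI50 denotes the concentration required for 50% inhibition of growth. TGI: total growth inhibition.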

The text below walks through data of PubChem BioAssay (NCI).

Regarding `C=CCN1C(=O)CS/C1=N/NC(=O)C(O)(c1ccccc1)c1ccccc1`, the TGI in the assay with SK-MEL-28 melanoma, in the assay with 786-0 renal, in the assay with SR leukemia, in the assay with ACHN renal, with SNB-75 CNS and in the assay on SW-620 colon was more than 10 µM in each case. The TGI in the assay on SF-268 CNS, in the assay on MDA-MB-435, with T-47D breast, in the assay on RPMI-8226 leukemia, in the assay with SK-MEL-2 melanoma and in the assay on MALME-3M melanoma was more than 10 µM throughout. For the same molecule, the TGI with NCI-H460 lung, in the assay on SK-MEL-5 melanoma, in the assay with RXF 393 renal, in the assay with M14 melanoma, with HOP-92 NSCLC and with HL-60(TB) leukemia was more than 10 µM each time. Further, the TGI with NCI-H23 lung, in the assay with HOP-62 NSCLC, in the assay on UACC-62 melanoma, with K-562 leukemia, with CCRF-CEM leukemia and in the assay on CAKI-1 renal was more than 10 µM throughout. Moreover, the TGI with COLO 205 colon, in the assay on OVCAR-4 ovarian, in the assay on A549 NSCLC, in the assay with IGROV1 ovarian, in the assay on U251 CNS and with MCF7 breast was more than 10 µM throughout. Also, the TGI in the assay with MOLT-4 leukemia, in the assay with SK-OV-3 ovarian and in the assay with NCI/ADR-RES ovarian was more than 10 µM in each case.

As for `c1ccc(Cn2c(-c3ccc(OC[C@H](C4CCNCC4)n4c(-c5ccccc5)nc5ccccc54)cc3)nc3ccccc32)cc1`, the GI50 in the assay with T-47D breast is 2.19 µM; in the assay with A498 renal, 1.48 µM; in the assay on TK-10 renal, 1.63 µM; in the assay with HS 578T breast, 2 µM; with NCI/ADR-RES ovarian, 7.74 µM. Also, the TGI with T-47D breast was 4.72 µM; with A498 renal, 2.83 µM; with TK-10 renal, 3.08 µM; in the assay with HS 578T breast, 4.79 µM; in the assay with NCI/ADR-RES ovarian, more than 80.7 µM.
